Here are results for 1 molecule from publication PMC10921007 (Cancer Science, 2023).

This experiment has as its target T1, SHCBP1 (Homo sapiens, UniProt Q8NEM2).
T1 sequence (Q8NEM2 2-672): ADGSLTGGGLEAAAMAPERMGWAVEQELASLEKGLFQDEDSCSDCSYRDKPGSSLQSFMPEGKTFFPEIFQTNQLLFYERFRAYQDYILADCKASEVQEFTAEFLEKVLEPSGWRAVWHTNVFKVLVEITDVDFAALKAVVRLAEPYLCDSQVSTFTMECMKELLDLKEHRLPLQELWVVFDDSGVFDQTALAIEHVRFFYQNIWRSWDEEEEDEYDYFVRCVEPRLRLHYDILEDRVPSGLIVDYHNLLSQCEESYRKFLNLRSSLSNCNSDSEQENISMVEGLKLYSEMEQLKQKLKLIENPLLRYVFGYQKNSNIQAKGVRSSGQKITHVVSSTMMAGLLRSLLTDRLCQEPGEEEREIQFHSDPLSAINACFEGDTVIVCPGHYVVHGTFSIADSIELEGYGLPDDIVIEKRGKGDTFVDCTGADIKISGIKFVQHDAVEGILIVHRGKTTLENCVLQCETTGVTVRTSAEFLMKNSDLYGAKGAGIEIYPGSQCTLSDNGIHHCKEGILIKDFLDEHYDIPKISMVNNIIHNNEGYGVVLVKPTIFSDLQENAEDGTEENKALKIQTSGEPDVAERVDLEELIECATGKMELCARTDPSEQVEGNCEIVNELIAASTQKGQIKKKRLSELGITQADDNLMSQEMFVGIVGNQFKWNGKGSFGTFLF
Description: microscale thermophoresis. Type of experiment: binding.

Take `CN[C@@H](C)C(=O)N[C@H](C(=O)N1CCC[C@H]1C(=O)N[C@H]1c2ccccc2C[C@H]1OCC#CC#CCO[C@@H]1Cc2ccccc2[C@@H]1NC(=O)[C@@H]1CCCN1C(=O)[C@@H](NC(=O)[C@H](C)NC)C1CCCCC1)C1CCCCC1` [AZD5582]: the Kd came out at 1210 nM.
